# Laboratory results published in patent US20260306491A1, “EGFR INHIBITOR FOR TREATING CANCERS COMPRISING ATYPICAL EGFR MUTATIONS” (ORIC Pharmaceuticals, Inc., priority 2023, published 2026).
# “And” between values parts separate entries of the source, which are not always exact repeats. Equal entries are not always repeated.
# Assays:
# EGFR_L718Q = molecular target: T1, EGFR_L718Q (Homo sapiens, UniProt P00533, L718Q); experiment: EGFR kinase activity (AQT0794 peptide, Sox fluorescence); type: biochemical; details: 1 mM ATP, 2.0 nM enzyme, room temperature
# T1 construct: purchased SignalChem E10-122G2G
# Description: (§1) Compound I was dissolved in DMSO to generate a 10 mM stock solution. Dosing solutions for biochemical assays were prepared by serial dilution in DMSO followed by dilution in assay buffers as described in the experimental procedures. Stock formulations were stored at −80° C. and dosing solutions were prepared for each experiment immediately prior to use.
# (§2) Activity of human recombinant EGFR wildtype and mutant proteins was measured by the phosphorylation of a peptide substate via chelation-enhanced fluorescence using the sulfonamido-oxine (Sox) chromophore detection format. Compound I was solubilized in DMSO. 16-point half log titrations in 100% DMSO were carried out by a Bravo liquid handler (Agilent) in a 384-well polypropylene plate (Greiner Cat. #781201). Using the Bravo liquid handler, intermediate 1:10 dilutions in a 384-well polypropylene plate were created in assay buffer. For the enzymatic reactions, 5 μL from the intermediate compound dilution plate was transferred to a low volume 384 well, black flat-bottom polystyrene microplate (Greiner Cat. #784076). A separate plate was generated for each enzyme. Next, 5 μL of a 4× ATP/AQT0794 working solution was added to the assay plate. Finally, 10 μL of 2× enzyme was added to start the reactions. The plate was sealed with a PerkinElmer TopSeal-A Plus plate seal (Cat. #6050185) and read at excitation (360 nm) and emission (492 nm) in continuous kinetic mode every 2 minutes for 3 hours at room temperature. Reactions were performed in 50 mM HEPES, pH 7.5, 1 mM ATP, 1.0 mM DTT, 0.015% Brij-35, 0.01% BSA, 1.0 mM EGTA, 10 mM MgCl2, 10 μM EGFR peptide substrate probe from AssayQuant (Cat. #AQT0794) plus recombinant EGFR protein (Table 1). The final DMSO concentration was 2.5%.
# (§3) Real-time continuous kinetic data were loaded into Dotmatics software where slopes were calculated, converted to % inhibitions and IC50s were generated using the four-parameter non-linear regression curve fit. Reactions lacking enzymes were used as 100% inhibition controls. After addition of recombinant EGFR and its substrates ATP and AQT0794, the activity of EGFR was measured by quantification of the phosphorylation of the AQT0794 peptide substate via chelation-enhanced fluorescence using the sulfonamido-oxine (Sox) chromophore detection format with diminishing signal indicative of inhibition of EGFR activity.
# EGFR_L747S = molecular target: T2, EGFR_L747S (Homo sapiens, UniProt P00533, L747S); experiment: as above; type: biochemical; details: 1 mM ATP, 0.5 nM enzyme, room temperature
# T2 construct: purchased SignalChem E10-122Y2G
# Description: as §1, §2, §3
# EGFR_G719C = molecular target: T3, EGFR_G719C (Homo sapiens, UniProt P00533, G719C); experiment: as above; type: biochemical; details: 1 mM ATP, 5.0 nM enzyme, room temperature
# T3 construct: purchased SignalChem E10-12FG
# Description: as §1, §2, §3
# EGFR_d746-750 G724S = molecular target: T4, EGFR_d746-750 G724S (Homo sapiens, UniProt P00533, DEL746-750/G724S); experiment: as above; type: biochemical; details: 1 mM ATP, 2.0 nM enzyme, room temperature
# T4 construct: purchased SignalChem E10-122D3G
# Description: as §1, §2, §3
# EGFR_G719S = molecular target: T5, EGFR_G719S (Homo sapiens, UniProt P00533, G719S); experiment: as above; type: biochemical; details: 1 mM ATP, 1.0 nM enzyme, room temperature
# T5 construct: purchased SignalChem E10-12HG
# Description: as §1, §2, §3
# EGFR_d746-750 S768I = molecular target: T6, EGFR_d746-750 S768I (Homo sapiens, UniProt P00533, DEL746-750/S768I); experiment: as above; type: biochemical; details: 1 mM ATP, 2.0 nM enzyme, room temperature
# T6 construct: purchased SignalChem E10-122B3G
# Description: as §1, §2, §3
# [1] = test system: EGFR exon 20 insertion mutated NSCLC; experiment: Clinical study: duration of treatment and antitumor response, EGFR exon 20 insertion mutated NSCLC (Example 10); type: in vivo, human; details: oral hemifumarate, one value per subject
# Description: (§4) A clinical study was conducted using Compound I in human subjects having non-small cell lung cancer (NSCLC) comprising EGFR exon 20 insertion mutations, HER2 exon 20 insertion mutations, or HER2 amplification or overexpression. A total of 50 human subjects having non-small cell lung cancer comprising one or more EGFR exon 20 insertion mutations, HER2 exon 20 insertion mutations, or HER2 amplification or overexpression were enrolled in the study as of Jul. 31, 2023 with data collected as of Sep. 26, 2023. The subjects were enrolled into one of ten dosing cohorts that were each orally administered Compound I in the form of a hemifumarate salt as shown in Table 13 (QD=once per day; BID=twice per day).
# (§5) Duration of treatment and antitumor responses achieved in evaluable subjects with EGFR exon 20 insertion mutated NSCLC (dose level greater than or equal to 45 mg TDD and at least one post-baseline tumor assessment) who were administered Compound I in the form of a hemifumarate salt are set forth in Tables 19 and 20, respectively.
# [2] = test system: HER2 exon 20 insertion mutated NSCLC; experiment: Clinical study: duration of treatment and antitumor response, HER2 exon 20 insertion mutated NSCLC (Example 10); type: in vivo, human
# Description: as §4
# as §5, with “HER2” for “EGFR”, “mutate” for “mutated”, “21” for “19”, “22,” for “20,”
# T5 sequence (P00533 25-1210 G719S): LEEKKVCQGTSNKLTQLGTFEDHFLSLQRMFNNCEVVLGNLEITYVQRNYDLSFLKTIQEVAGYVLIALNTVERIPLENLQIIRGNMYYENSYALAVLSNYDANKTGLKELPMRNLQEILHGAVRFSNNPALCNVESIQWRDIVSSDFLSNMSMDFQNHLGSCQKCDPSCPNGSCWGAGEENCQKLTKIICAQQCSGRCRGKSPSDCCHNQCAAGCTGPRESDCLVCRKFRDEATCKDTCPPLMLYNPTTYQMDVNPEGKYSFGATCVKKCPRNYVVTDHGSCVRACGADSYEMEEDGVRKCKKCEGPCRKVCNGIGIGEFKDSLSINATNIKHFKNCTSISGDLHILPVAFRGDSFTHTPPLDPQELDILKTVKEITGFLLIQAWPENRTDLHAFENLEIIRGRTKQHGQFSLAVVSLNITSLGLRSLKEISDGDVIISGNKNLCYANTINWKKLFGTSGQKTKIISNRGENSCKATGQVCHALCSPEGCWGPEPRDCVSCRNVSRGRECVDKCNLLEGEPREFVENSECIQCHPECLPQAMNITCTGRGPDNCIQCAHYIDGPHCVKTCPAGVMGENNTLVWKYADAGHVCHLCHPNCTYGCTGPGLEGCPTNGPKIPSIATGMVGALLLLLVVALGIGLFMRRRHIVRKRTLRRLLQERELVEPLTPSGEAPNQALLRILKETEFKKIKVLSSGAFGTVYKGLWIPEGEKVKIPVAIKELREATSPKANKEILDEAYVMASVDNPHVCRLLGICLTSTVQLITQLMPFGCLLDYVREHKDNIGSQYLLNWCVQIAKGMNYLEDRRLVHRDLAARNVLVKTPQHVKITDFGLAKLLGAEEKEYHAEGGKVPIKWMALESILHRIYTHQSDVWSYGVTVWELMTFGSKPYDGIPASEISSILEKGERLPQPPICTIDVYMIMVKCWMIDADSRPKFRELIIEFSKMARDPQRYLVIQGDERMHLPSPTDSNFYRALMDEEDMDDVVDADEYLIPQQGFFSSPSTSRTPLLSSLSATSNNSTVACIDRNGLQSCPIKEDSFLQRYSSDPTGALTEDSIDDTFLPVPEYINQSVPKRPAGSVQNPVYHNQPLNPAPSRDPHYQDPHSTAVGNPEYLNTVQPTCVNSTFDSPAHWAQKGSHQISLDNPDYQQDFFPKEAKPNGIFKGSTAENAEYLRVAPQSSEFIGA
# T2 sequence (P00533 25-1210 L747S): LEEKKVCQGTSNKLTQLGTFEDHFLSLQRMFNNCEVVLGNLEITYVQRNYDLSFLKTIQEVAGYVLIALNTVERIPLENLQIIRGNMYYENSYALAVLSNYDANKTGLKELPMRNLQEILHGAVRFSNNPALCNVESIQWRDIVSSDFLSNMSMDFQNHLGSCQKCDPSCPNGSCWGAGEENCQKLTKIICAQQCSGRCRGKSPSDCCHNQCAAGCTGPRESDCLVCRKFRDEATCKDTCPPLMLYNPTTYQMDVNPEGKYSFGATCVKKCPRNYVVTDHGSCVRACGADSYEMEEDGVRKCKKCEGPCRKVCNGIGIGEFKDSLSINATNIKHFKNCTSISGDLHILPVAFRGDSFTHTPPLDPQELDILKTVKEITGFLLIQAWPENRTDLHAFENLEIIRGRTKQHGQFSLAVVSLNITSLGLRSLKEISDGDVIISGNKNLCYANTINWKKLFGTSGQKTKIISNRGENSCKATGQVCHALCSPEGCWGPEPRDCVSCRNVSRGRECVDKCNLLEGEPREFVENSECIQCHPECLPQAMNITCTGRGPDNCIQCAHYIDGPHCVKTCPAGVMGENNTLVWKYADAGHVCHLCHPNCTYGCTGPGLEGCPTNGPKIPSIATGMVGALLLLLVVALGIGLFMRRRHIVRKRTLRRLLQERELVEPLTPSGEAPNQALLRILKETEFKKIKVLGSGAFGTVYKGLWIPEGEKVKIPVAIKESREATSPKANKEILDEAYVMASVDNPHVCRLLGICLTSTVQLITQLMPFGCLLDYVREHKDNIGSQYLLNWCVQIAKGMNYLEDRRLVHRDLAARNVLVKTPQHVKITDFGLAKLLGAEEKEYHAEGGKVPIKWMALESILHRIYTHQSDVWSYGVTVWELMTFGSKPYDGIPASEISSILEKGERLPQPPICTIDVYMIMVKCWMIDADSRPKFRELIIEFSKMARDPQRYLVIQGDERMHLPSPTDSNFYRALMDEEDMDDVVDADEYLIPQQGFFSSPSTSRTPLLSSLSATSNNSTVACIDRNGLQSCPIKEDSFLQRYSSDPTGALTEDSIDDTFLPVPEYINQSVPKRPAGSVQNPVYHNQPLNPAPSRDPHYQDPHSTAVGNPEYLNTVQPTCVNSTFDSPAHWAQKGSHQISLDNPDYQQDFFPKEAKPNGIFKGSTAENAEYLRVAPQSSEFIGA
# T3 sequence (P00533 25-1210 G719C): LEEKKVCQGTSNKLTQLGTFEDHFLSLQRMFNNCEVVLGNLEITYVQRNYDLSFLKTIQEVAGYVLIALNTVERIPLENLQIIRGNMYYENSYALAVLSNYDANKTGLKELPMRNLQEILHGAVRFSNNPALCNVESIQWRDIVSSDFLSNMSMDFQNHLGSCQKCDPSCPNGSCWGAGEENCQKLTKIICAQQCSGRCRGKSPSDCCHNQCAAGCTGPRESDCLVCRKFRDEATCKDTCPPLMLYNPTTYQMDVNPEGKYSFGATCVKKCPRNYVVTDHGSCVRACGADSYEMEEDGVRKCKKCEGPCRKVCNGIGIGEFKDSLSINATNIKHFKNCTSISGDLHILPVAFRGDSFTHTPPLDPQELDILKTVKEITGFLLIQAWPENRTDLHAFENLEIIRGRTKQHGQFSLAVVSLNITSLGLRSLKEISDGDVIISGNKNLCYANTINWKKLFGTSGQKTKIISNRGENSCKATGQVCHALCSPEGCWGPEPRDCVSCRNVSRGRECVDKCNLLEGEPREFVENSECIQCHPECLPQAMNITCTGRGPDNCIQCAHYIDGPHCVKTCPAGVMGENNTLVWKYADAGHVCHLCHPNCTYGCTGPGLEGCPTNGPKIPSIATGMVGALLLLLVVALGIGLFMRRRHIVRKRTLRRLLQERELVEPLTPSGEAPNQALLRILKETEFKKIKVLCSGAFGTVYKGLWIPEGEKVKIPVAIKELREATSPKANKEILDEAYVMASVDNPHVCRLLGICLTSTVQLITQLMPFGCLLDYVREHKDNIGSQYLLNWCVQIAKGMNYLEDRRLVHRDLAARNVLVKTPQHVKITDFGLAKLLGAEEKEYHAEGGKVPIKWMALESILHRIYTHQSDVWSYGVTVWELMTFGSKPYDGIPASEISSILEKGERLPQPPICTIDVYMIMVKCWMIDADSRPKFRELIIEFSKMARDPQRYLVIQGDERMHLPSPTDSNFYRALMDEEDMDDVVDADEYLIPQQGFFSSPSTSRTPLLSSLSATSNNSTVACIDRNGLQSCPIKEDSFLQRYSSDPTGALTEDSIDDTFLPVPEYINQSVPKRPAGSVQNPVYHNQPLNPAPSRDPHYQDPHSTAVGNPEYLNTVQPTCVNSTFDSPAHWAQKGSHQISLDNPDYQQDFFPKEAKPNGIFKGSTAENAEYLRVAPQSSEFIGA
# T4 sequence (P00533 with tags, fused parts or gaps G724S/DEL746-750): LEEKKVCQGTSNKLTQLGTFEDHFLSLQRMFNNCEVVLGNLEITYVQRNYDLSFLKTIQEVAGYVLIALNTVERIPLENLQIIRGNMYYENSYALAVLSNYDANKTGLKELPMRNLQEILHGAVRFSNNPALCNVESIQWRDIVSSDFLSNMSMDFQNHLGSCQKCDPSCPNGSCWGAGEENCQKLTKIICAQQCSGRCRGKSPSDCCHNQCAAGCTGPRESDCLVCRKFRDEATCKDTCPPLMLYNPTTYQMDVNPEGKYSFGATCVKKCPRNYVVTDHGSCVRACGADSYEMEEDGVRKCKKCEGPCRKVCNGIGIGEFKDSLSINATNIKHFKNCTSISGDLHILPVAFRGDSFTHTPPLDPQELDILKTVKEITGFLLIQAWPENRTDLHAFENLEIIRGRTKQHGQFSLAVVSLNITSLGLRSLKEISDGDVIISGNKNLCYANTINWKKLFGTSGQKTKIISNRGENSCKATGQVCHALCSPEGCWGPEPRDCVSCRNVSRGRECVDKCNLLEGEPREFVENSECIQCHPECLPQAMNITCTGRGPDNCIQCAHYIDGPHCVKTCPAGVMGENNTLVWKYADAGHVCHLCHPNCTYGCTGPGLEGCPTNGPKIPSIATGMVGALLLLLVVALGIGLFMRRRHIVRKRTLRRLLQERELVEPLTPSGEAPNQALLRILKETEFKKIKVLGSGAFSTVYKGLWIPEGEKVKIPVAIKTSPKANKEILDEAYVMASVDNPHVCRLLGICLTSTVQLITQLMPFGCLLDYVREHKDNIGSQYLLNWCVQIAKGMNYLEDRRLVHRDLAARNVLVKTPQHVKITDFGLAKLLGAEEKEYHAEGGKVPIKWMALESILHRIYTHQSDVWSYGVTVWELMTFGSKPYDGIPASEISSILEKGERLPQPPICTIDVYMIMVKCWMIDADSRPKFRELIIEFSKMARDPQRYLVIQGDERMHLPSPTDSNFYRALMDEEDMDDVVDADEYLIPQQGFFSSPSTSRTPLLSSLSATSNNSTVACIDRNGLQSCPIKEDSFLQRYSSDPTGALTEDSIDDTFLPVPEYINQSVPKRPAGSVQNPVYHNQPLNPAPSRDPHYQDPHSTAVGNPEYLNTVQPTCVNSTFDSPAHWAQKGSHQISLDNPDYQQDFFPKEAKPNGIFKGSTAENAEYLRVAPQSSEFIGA
compound,measurement,setting,value
"C=CC(=O)Nc1cc(Nc2cc(N3OCC[C@@H]3c3cc(F)cc(F)c3)ncn2)c(OC)cc1N1CCC(N2CCN(C3CC3)CC2)CC1 [Compound I, N-[2-[4-(4-cyclopropyl-1-piperazinyl)-1-piperidinyl]-5-[[6-[(3R)-3-(3,5-difluorophenyl)-2-isoxazolidinyl]-4-pyrimidinyl]amino]-4-methoxyphenyl]-2-propenamide]",IC50,EGFR_L718Q,3.7 nM
same,IC50,EGFR_L747S,1.5 nM
same,IC50,EGFR_G719C,0.6 nM
same,IC50,EGFR_d746-750 G724S,3.5 nM
same,IC50,EGFR_G719S,0.9 nM
same,IC50,EGFR_d746-750 S768I,1 nM
same,Duration of treatment,[1]; dosing cohort 30 BID,ongoing
same,Duration of treatment,[1]; dosing cohort 45 QD,84 days and ongoing and 134 days and 28 days
same,Duration of treatment,[1]; dosing cohort 60 QD,33 days and ongoing and 20 days
same,Duration of treatment,[1]; dosing cohort 75 QD,90 days and 109 days and 20 days and ongoing
same,Duration of treatment,[1]; dosing cohort 90 QD,28 days and 52 days
same,Duration of treatment,"[2]; oral hemifumarate, dosing cohort 30 BID, one value per subject",79 days and Ongoing (3×) and 54 days
same,Duration of treatment,"[2]; oral hemifumarate, dosing cohort 45 QD, one value per subject",Ongoing
same,Duration of treatment,"[2]; oral hemifumarate, dosing cohort 60 QD, one value per subject",28 days
same,Duration of treatment,"[2]; oral hemifumarate, dosing cohort 75 QD, one value per subject",179 days and 47 days
same,Duration of treatment,"[2]; oral hemifumarate, dosing cohort 90 QD, one value per subject",Ongoing
same,Best percent change in the sum of target lesions from baseline,"[2]; oral hemifumarate, ≥45 mg TDD, one value per subject (subjects 1 to 13)",0% (2×) and −3% and −19% and −31% and −33% and −34% and −55% and −100% and 31% and 11% and 9% and 5%
same,Duration of treatment,[2]; po,2 days
